Patent US10760110B2, “Antibiotic testing and screening system” (priority 2017, dated 2020)
Read-outs that look alike come from different tables or passages of the source.

Key:
[1] = system: A. baumannii KW1 strains with β-lactamase plasmids; assay: Etest MIC of β-lactams, extended-spectrum β-lactamase, AmpC β-lactamase or carbapenemase (Table 18); type: cell-based, Acinetobacter baumannii
Description: DNA fragments of the resistance genes along with their flanking regions were amplified from clinical plasmids via PCR with specific primer pairs. The resulting PCR fragments were digested and then cloned into the plasmid pYMAb5 or pYMAb5Tc. The resulting plasmids were then transformed into A. baumannii KW1 via electroporation.
(§1) The MICs of antibiotics were determined using the Etest (Biodisk AB, Sweden) according to the manufacturer's instructions. The MICs from the Etest, which fall between standard two-fold dilutions, were rounded up to the next highest two-fold value. The MICs of ceftazidime and cefotaxime against K. pneumoniae NVT1001 harbouring the pACYC177 plasmid with blaOXA-48 were further determined using a broth microdilution test according to the recommendations of the CLSI,^25 and the results were interpreted according to the breakpoints established by the CLSI in 2017.^25 Meanwhile, due to the lack of CLSI breakpoints in 2016 and 2017, the results for cephalothin were interpreted according to the breakpoints established by the CLSI in 2015,^26 and the results for moxifloxacin were interpreted according to the breakpoints established by the EUCAST in 2017.^27

[2] = system: K. pneumoniae NVT1001 harbouring the pACYC177 plasmid with blaOXA-48; assay: Broth microdilution MIC (CLSI); type: cell-based; settings: Klebsiella pneumoniae; broth microdilution test; NVT1001 with pACYC177 blaOXA-48
Description: as §1

[3] = system: K. pneumoniae NVT1001 harbouring the pACYC177 plasmid with blaOXA-48; assay: Mouse peritonitis-sepsis infection model; type: in vivo, Klebsiella pneumoniae
Description: Pathogen-free 6- to 8-week-old male BALB/c mice were obtained from the National Laboratory Animal Center (Taiwan) and maintained in the pathogen-free vivarium of the Laboratory Animal Center of National Defense Medical Center (Taiwan). K. pneumoniae NVT1001 harbouring the pACYC177 plasmid with blaOXA-48 was cultured overnight at 37° C. in BHI broth and then diluted (1:100) in fresh BHI broth. The culture was incubated until the mid-exponential growth phase, and the cells were then washed once, resuspended in 0.85% sterile saline, and adjusted to the desired concentrations according to the OD600 value. The concentrations were verified by plating the cells to determine viable counts. […] Meanwhile, antibiotic doses were prepared in 0.85% sterile saline. At 1 hour post-inoculation, antibiotic or 0.85% sterile saline alone was administered as a single subcutaneous injection with a volume of 0.3 mL per dose. The mice were then monitored daily for 7 days to measure survival.

[4] = system: clinical K. pneumoniae isolate producing the carbapenemase OXA-48; settings: previous study; cited from earlier work
[5] = system: clinical K. pneumoniae isolate producing the carbapenemase OXA-48; settings: previous study; cited from earlier work; remark: listed apart in the source
[6] = system: K. pneumoniae NVT1001 strains with QnrB, QnrS or AAC(6′)-Ib-cr plasmids; assay: Etest MIC of quinolones, GyrA/ParC mutations, ΔramR and/or QnrB, QnrS or AAC(6′)-Ib-cr (Table 12); type: cell-based; settings: Klebsiella pneumoniae
Description: DNA fragments of the resistance genes along with their flanking regions were amplified from clinical plasmids via PCR with specific primer pairs. The resulting PCR fragments were digested and then cloned into the plasmid pACYC177 or pACYC184. The resulting plasmids were then transformed into K. pneumoniae strain NVT1001 via electroporation. The recombinant bacteria were plated onto LB agar plates containing kanamycin (50 mg/L) or chloramphenicol (50 mg/L), and the presence of the cloned gene was confirmed via PCR and DNA sequencing.
as §1

[7] = system: K. pneumoniae NVT1001 and its GyrA/ParC and ΔramR mutants; assay: Etest MIC of quinolones, GyrA/ParC mutations and AcrAB-TolC overexpression (ΔramR) (Table 10); type: cell-based; settings: Klebsiella pneumoniae
Description: DNA fragments of the entire gyrA and parC sequences along with their flanking regions were amplified from K. pneumoniae strain NVT1001 using PCR with specific primer pairs and then cloned into the plasmid pUT-KB. The QuikChange site-directed mutagenesis kit (Stratagene) was used to generate mutations in the gyrA and parC genes in the plasmid using the methods described by the manufacturer. For homologous recombination, plasmids containing mutations in the gyrA or parC gene were transformed into E. coli S17-1 λpir^23 via electroporation and mobilized into K. pneumoniae strain NVT1001 via conjugation. Single-crossover strains were selected from BIND plates supplemented with kanamycin (50 mg/L), as the growth of non-K. pneumoniae contaminants is suppressed on BIND plates.^24 After the kanamycin-resistant transconjugants were selected, the insertion of plasmids was verified via PCR. After incubation in 20 mL BHI broth for 6 hours at 37° C. in the absence of kanamycin, the fully grown cultures were spread onto LB agar plates supplemented with 10% sucrose. After the double crossover occurred, the sucrose-resistant and kanamycin-susceptible colonies were selected, and the gene mutations were confirmed via PCR.
as §1

C[C@H]1[C@H](NC(=O)/C(=N\OC(C)(C)C(=O)O)c2csc(N)n2)C(=O)N1S(=O)(=O)O [Aztreonam]
no increase effects: effects on the MIC ([1]; production of each carbapenemase tested)

CC(C)(O/N=C(\C(=O)N[C@@H]1C(=O)N2C(C(=O)[O-])=C(C[n+]3ccccc3)CS[C@H]12)c1csc(N)n1)C(=O)O [Ceftazidime]
0.5 µg/mL: MIC [2]
no increase effects: effects on the MIC ([1]; production of OXA-type carbapenemases)
lower than that of cefotaxime: ED50 (comparison) [5]
higher than that of cefotaxime: in vivo efficacy (comparison) ([3]; BALB/c mice)
4 fold lower: MIC relative to that of cefotaxime [4]
30 mg/kg: ED50 ([3]; Klebsiella pneumoniae, sc, read-out: estimated ED50)

CO/N=C(\C(=O)N[C@@H]1C(=O)N2C(C(=O)O)=C(COC(C)=O)CS[C@H]12)c1csc(N)n1 [Cefotaxime]
no mice survived: survival of mice ([3]; BALB/c mice, 30 mg/kg)
2 µg/mL: MIC [2]

CCn1cc(C(=O)O)c(=O)c2ccc(C)nc21 [Nalidixic acid, nalidixic acid]
8 µg/mL: MIC ([7]; S80I mutant (ParC S80I))
256 µg/mL: MIC ([6]; QnrB on pACYC177, ΔramR mutant)
64 µg/mL: MIC ([6]; AAC(6′)-Ib-cr on pACYC177, ΔramR mutant) | MIC ([6]; QnrS on pACYC177, ΔramR mutant)
4 µg/mL: MIC ([6]; AAC(6′)-Ib-cr on pACYC177, WT (NVT1001), read-out: MIC) | MIC ([6]; no supplemental plasmid, WT (NVT1001), read-out: MIC) | MIC ([7]; NVT1001, read-out: MIC)
> 256 µg/mL: MIC ([6]; AAC(6′)-Ib-cr on pACYC177, S83I mutant) | MIC ([6]; AAC(6′)-Ib-cr on pACYC177, S83I/D87N/S80I mutant) | MIC ([6]; AAC(6′)-Ib-cr on pACYC177, S83I/S80I mutant) | MIC ([6]; AAC(6′)-Ib-cr on pACYC177, ΔramR/S83I mutant) | MIC ([6]; AAC(6′)-Ib-cr on pACYC177, ΔramR/S83I/D87N/S80I mutant) | MIC ([6]; AAC(6′)-Ib-cr on pACYC177, ΔramR/S83I/S80I mutant) | MIC ([6]; QnrB on pACYC177, S83I mutant) | MIC ([6]; QnrB on pACYC177, S83I/D87N/S80I mutant) | MIC ([6]; QnrB on pACYC177, S83I/S80I mutant) | MIC ([6]; QnrB on pACYC177, ΔramR/S83I mutant) | MIC ([6]; QnrB on pACYC177, ΔramR/S83I/D87N/S80I mutant) | MIC ([6]; QnrB on pACYC177, ΔramR/S83I/S80I mutant) | MIC ([6]; QnrS on pACYC177, S83I mutant) | MIC ([6]; QnrS on pACYC177, S83I/D87N/S80I mutant) | MIC ([6]; QnrS on pACYC177, S83I/S80I mutant) | MIC ([6]; QnrS on pACYC177, ΔramR/S83I mutant) | MIC ([6]; QnrS on pACYC177, ΔramR/S83I/D87N/S80I mutant) | MIC ([6]; QnrS on pACYC177, ΔramR/S83I/S80I mutant) | MIC ([6]; no supplemental plasmid, S83I mutant) | MIC ([6]; no supplemental plasmid, S83I/D87N/S80I mutant) | MIC ([6]; no supplemental plasmid, S83I/S80I mutant) | MIC ([6]; no supplemental plasmid, ΔramR/S83I mutant) | MIC ([6]; no supplemental plasmid, ΔramR/S83I/D87N/S80I mutant) | MIC ([6]; no supplemental plasmid, ΔramR/S83I/S80I mutant) | MIC ([7]; D87N mutant (GyrA D87N)) | MIC ([7]; D87N/S80I mutant) | MIC ([7]; S83F mutant (GyrA S83F)) | MIC ([7]; S83F/D87N mutant) | MIC ([7]; S83F/D87N/S80I mutant) | MIC ([7]; S83F/S80I mutant) | MIC ([7]; S83I mutant (GyrA S83I)) | MIC ([7]; S83I/D87N mutant) | MIC ([7]; S83I/D87N/S80I mutant) | MIC ([7]; S83I/S80I mutant) | MIC ([7]; S83L mutant (GyrA S83L)) | MIC ([7]; S83L/D87N mutant) | MIC ([7]; S83L/D87N/S80I mutant) | MIC ([7]; S83L/S80I mutant) | MIC ([7]; S83Y mutant (GyrA S83Y)) | MIC ([7]; S83Y/D87N mutant) | MIC ([7]; S83Y/D87N/S80I mutant) | MIC ([7]; S83Y/S80I mutant) | MIC ([7]; ΔramR/S83I mutant) | MIC ([7]; ΔramR/S83I/D87N/S80I mutant) | MIC ([7]; ΔramR/S83I/S801 mutant)
16 µg/mL: MIC ([6]; QnrS on pACYC177, WT (NVT1001), read-out: MIC)
32 µg/mL: MIC ([6]; QnrB on pACYC177, WT (NVT1001), read-out: MIC) | MIC ([6]; no supplemental plasmid, ΔramR mutant) | MIC ([7]; ΔramR mutant)
